In US7608640B2, “Glycine betaine and its use” (priority 2001, dated 2009):

Key:
bleeding time in rats = assay: Induced haemorrhagic (bleeding) time, tail cut; type: in vivo, rat; conditions: for B.T.C. (bleeding time caused): 5 mg/ml/kg; for Provoked haemorrhage: after 24 hours; for Induced haemorrhage: oral 50 mg/kg; for Bleeding time: rat, glycine betaine 5 mg/kg, acetylsalicylic acid 100 mg/kg, heparin 2 mg/kg
Protocol: Induced Haemorrahgic Time IHT
(E. Dejana. Bleeding time in rats. Thrombosis. Rech. 1982) Blood samples are made before the test. The tail of anaesthetised rat, is dipped for 5 minutes in a water bath at 37° C. so as to provoke a dilatation of the peripheral vessels which are removed and cut at the end, the chronometer being started. The IHT is defined as being the time period comprised between the cutting of end tail and the end of the haemorrhage or bleeding. The end of haemorrhage is defined as the time where the last drop of blood is removed from the tail and no other drop is seen for 180 seconds. […]

coagulation factors = assay: Biological balance (Quick time, ACT, fibrinogen, α2AP, AT III); type: in vivo, rat
blood cells = assay: Blood cell counts; type: in vivo, rat; conditions: rat; glycine betaine 5 mg/kg, acetylsalicylic acid 100 mg/kg, heparin 2 mg/kg
[1] = tested on: arterial thrombosis induced by laser beam in the mesenteric microcirculation of the rat; assay: Laser-induced thrombosis in the mesenteric microcirculation; type: in vivo
Source text: A/Principle of Laser-induced Thrombosis (Seiffge D. et al., 1989; Weichter W. et al., 1983).
In this model, lesion of the vascular wall is induced by a laser beam. This beam causes a limited lesion of the vascular endothelium (only 1 to 2 cells are destroyed). This laying bare of the sub-endothelium, which is a thrombogenetic surface, results in the adherence of platelets via […]. This adherence of platelets is followed by the activation thereof. They form pseudopods and secrete the content of their granules. This activation results in the appearance of glycoproteins IIb-IIIa which are necessary for the aggregation of the platelets between them. This lesion is induced in the mesenteric microcirculation of the rat. It is immediately followed by the formation of a thrombus (in a few seconds). This thrombus, which rapidly enlarges under the influence of the flow of blood, embolises before being formed again.
By this manes, the assessment of the effect of glycine betaine was conducted pharmacologically in conjunction with the study of two active molecules used as a reference; namely acetylsalicylic acid and heparin (of low molecular weight). The assessment also involved the activity of glycine betaine in relation to the prothrombotic effects induced by contrasting products.
Male Wistar rats were used for these tests. They weighed between 200 and 250 grams. After an 8-day stabilisation period, the rats were subjected to fasting for 12 hours. They were then anaesthetised, glycine betaine was administered subcutaneously, and the mesentery (laser) or vena cava (stasis) was opened at the end of the experiments.

[2] = Azure A method, in vitro binding of betaine to heparin
Protocol: This experiment utilized stock solutions of azure A, heparin, betaine, and a betaine-heparin combination in order to determine in vitro binding of betaine to Heparin. The stock solution of azure A was prepared at 4×10^−5 mol L^−1 by solubilizing 58.35 mg azure A in 50 ml of sterile injectable water. Next, 10 ml of this solution was diluted in 90 ml of sterile injectable water. The resulting solution was diluted again by taking 10 ml of this solution and diluting it in 90 ml of sterile injectable water. Finally, the resulting solution is filtered on Watman paper and aliquots of 4 ml are realized. The stock solution of Heparin was prepared by diluting the manufacturer-supplied stock solution (5000 UI/ml having ±150 UI/mg), (LEO Pharma, Ballerup, Denmark). One ml of this supplied solution was diluted in 499 ml of sterile injectable water in order to obtain a 10 UI/ml in final concentration. The betaine stock solution was prepared by diluting betaine in sterile injectable water in order to obtain a final concentration of 10 mg/ml. The Heparin-betaine combination stock solution was prepared by mixing 12 ml of the betaine stock solution prepared as noted above with 14.4 ml of the manufacturer-supplied Heparin stock solution (corresponding to 120 mg of betaine and 480 mg Heparin). This mixture was agitated for 2 minutes while mixing and then incubated for 10 minutes at 20° C. The final combination solution is then prepared by taking 1 ml of the solution after incubation and diluting it in 499 ml of sterile injectable water.
Each stock solution was then tested at six dilutions for its effect on heparin binding to azure A dye. The first dilution consisted of 0 μl solution, 400 μl water and 4 ml azure A solution. The second dilution consisted of 80 μl solution, 320 μl water and 4 ml azure A solution. The third dilution consisted of 160 μl solution, 240 μl water and 4 ml azure A solution. The fourth dilution consisted of 240 μl solution, 160 μl water and 4 ml azure A solution. The fifth dilution consisted of 320 μl solution, 80 μl water and 4 ml azure A solution. The sixth dilution consisted of 400 μl solution, 0 μl water and 4 ml azure A solution. Each dilution was then subjected to the azure A method which is a rapid and simple spectrophotometric method for determining heparin concentration following the formation of a soluble complex between heparin and azure A dye. Chemically, azure A is formed by 3 benzene nuclei and a terminal N^+. This soluble complex changes the typically blue color of the azure dye to purple. The principle of the test is based on the spectrophotometric absorption of the heparin/azure A dye complex at 632 nm. Heparin binding to azure A results in lowered absorbance and the solution gradually turns deeper purple as heparin concentration increases. In the presence of a substance which binds to heparin (e.g., protamine), azure A retains its blue color and absorbance remains constant. The results of this test are provided in the following table which illustrates that no significant change in the absorbance of azure A occurs when betaine is combined with heparin. However, Heparin alone has a significant effect on azure A absorption.

[3] = 5 mg/kg/day, repeated administration on 5 days of treatment
[4] = rat, glycine betaine 5 mg/kg, acetylsalicylic acid 100 mg/kg, heparin 2 mg/kg
[5] = 5 mg/ml/kg, Group I: injected 1 hour before
[6] = 5 mg/ml/kg, Group II: injected 2 hours before
[7] = 5 mg/ml/kg, Group III: injected 3 hours before
[8] = 5 mg/ml/kg, Group IV: injected 4 hours before
[9] = 24 hours after sub cutaneous 10 mg/kg
[10] = 24 hours after sub cutaneous administration, title 20 mg/kg, table line 10 mg/kg
[11] = rat, after laser firings, glycine betaine 5 mg/kg, acetylsalicylic acid 100 mg/kg, heparin 2 mg/kg
[12] = Heparin UI/ml (reference) 2, second dilution, 80 μl stock solution
[13] = Heparin UI/ml (reference) 4, third dilution, 160 μl stock solution
[14] = Heparin UI/ml (reference) 6, fourth dilution, 240 μl stock solution
[15] = Heparin UI/ml (reference) 8, fifth dilution, 320 μl stock solution
[16] = Heparin UI/ml (reference) 10, sixth dilution, 400 μl stock solution

With `C[N+](C)(C)CC(=O)O` [Glycine betaine] the “B.T.C. (bleeding time caused)” value (bleeding time in rats; Group I: injected 1 hour before the experiment) was 105 ± 26.2 s, the “B.T.C. (bleeding time caused)” value (bleeding time in rats; Group II: injected 2 hours before the experiment) was 145 ± 15.52 s and the “B.T.C. (bleeding time caused)” value (bleeding time in rats; Group III: injected 3 hours before the experiment) was 115.5 ± 14.2 s. For the same molecule, the “B.T.C. (bleeding time caused)” value (bleeding time in rats; Group IV: injected 4 hours before the experiment) was 120 ± 10.13 s, the “Provoked Haemorrhage time” value (bleeding time in rats; 10 mg/kg subcutaneous) was 105 s and the Provoked haemorrhage (bleeding time in rats; 10 mg/kg subcutaneous) was 114 ± 12.76 s. The Provoked haemorrhage (bleeding time in rats; 20 mg/kg subcutaneous) was 110 ± 13.22 s, the “Provoked Haemorrhage time” value (bleeding time in rats; 30 mg/kg subcutaneous) was 112 s and the “Provoked Haemorrhage time” value (bleeding time in rats; 50 mg/kg subcutaneous) was 115 s. The Induced haemorrhage (bleeding time in rats; 1 hour) was 120 ± 5 s, the Induced haemorrhage (bleeding time in rats; 6 hours) was 111 ± 3.6 s and the Induced haemorrhage (bleeding time in rats; 24 hours) was 113.33 ± 18.92 s. For the same molecule, the Induced haemorrhage (bleeding time in rats; 48 hours) was 109 ± 8.54 s, the Bleeding time (bleeding time in rats) was 95 ± 5 s and the ACT (coagulation factors; [3]) was 39.3 ± 2.3 s. The Fibrinogen (coagulation factors; [3]) was 2.2 ± 0.1 g/L, the Quick time (coagulation factors; [3]) was 19.8 ± 1.2 s and the “ACT (Activated cephaline time)” value (coagulation factors; [4]) was 39.9 ± 1.05 s. For the same molecule, the “AT III (Antithrombin III)” value (coagulation factors; [4]) was 89.5 ± 1.37%, the Fibrinogen (coagulation factors; [4]) was 1.7 ± 0.1 g/L and the “QT (Quick time)” value (coagulation factors; [4]) was 16.9 ± 1.05 s. The “α2AP (Alpha,2-antiplasmin)” value (coagulation factors; [4]) was 29.7 ± 0.68%, the Number of platelets (blood cells) was 804.67 ± 20.03 10^9 and the “Number of red corpuscles” value (blood cells) was 6.19 ± 0.25 10^12. The “Number of white corpuscles” value (blood cells) was 4.43 ± 0.32 10^9, the Duration of embolisation [1, 5] was 0.51 ± 0.5 min and the Number of emboles [1, 5] was 1.8 ± 1.44. It also gave a Number of firings [1, 5] of 3.49 ± 1.07, a Duration of embolisation [1, 6] of 0.3 ± 0.23 min and a Number of emboles [1, 6] of 1.4 ± 1.18. The Number of firings [1, 6] was 3.0 ± 1.5, the Duration of embolisation [1, 7] was 1.00 ± 0.5 min and the Number of emboles [1, 7] was 1.99 ± 0.4. The Number of firings [1, 7] was 2.50 ± 1.25, the Duration of embolisation [1, 8] was 1.5 ± 0.6 min and the Number of emboles [1, 8] was 2.2 ± 0.69. The Number of firings [1, 8] was 2.7 ± 1.0, the Embolisation time [1, 9] was 0 ± 0 min and the Number of emboles [1, 9] was 1 +/− 0. For the same molecule, the “Number of laser firing” value [1, 9] was 3.33 +/− 0.57, the Embolisation time [1, 10] was 0 ± 0 min and the Number of emboles [1, 10] was 0.66 +/− 0.57. For the same molecule, the “Number of laser firing” value [1, 10] was 3.33 +/− 0.57, the Embolisation time ([1]; oral 50 mg/kg, 1 hour) was 0 ± 0 min and the “Number of laser firing” value ([1]; oral 50 mg/kg, 1 hour) was 4 +/− 0. The Embolisation time ([1]; oral 50 mg/kg, 6 hours) was 1 ± 0 min, the Number of emboles ([1]; oral 50 mg/kg, 6 hours) was 2.33 +/− 0.57 and the “Number of laser firing” value ([1]; oral 50 mg/kg, 6 hours) was 3.66 +/− 0.57. For the same molecule, the Embolisation time ([1]; oral 50 mg/kg, 24 hours) was 1 ± 0 min, the Number of emboles ([1]; oral 50 mg/kg, 24 hours) was 2.33 +/− 0.57 and the “Number of laser firing” value ([1]; oral 50 mg/kg, 24 hours) was 2.33 +/− 0.57. For the same molecule, the Number of emboles ([1]; oral 50 mg/kg, 48 hours) was 4.33 +/− 0.57, the Duration of embolisation [1, 11] was 1 ± 0 min and the “Number of emboles or embolies” value [1, 11] was 2 ± 0. The “Absorbance of azure A at 632 nm” value [2, 12] was 1.241, the “Absorbance of azure A at 632 nm” value [2, 13] was 1.213 and the “Absorbance of azure A at 632 nm” value [2, 14] was 1.1937. For the same molecule, the “Absorbance of azure A at 632 nm” value [2, 15] was 1.1612 and the “Absorbance of azure A at 632 nm” value [2, 16] was 1.154.
For Heparin, the Bleeding time (bleeding time in rats) was 313.33 ± 20 s, the “ACT (Activated cephaline time)” value (coagulation factors; [4]) was 39.46 ± 1.36 s and the “AT III (Antithrombin III)” value (coagulation factors; [4]) was 77.66 ± 1.52%. For the same molecule, the Fibrinogen (coagulation factors; [4]) was 2.13 ± 0.25 g/L, the “QT (Quick time)” value (coagulation factors; [4]) was 29.50 ± 0.52 s and the “α2AP (Alpha,2-antiplasmin)” value (coagulation factors; [4]) was 29.4 ± 1.01%. The Number of platelets (blood cells) was 777.33 ± 6.43 10^9, the “Number of red corpuscles” value (blood cells) was 6.20 ± 0.20 10^12 and the “Number of white corpuscles” value (blood cells) was 5.80 ± 0.10 10^9. For the same molecule, the Duration of embolisation [1, 11] was 1 ± 0 min, the “Number of emboles or embolies” value [1, 11] was 2.67 ± 0.52 and the “Absorbance of azure A at 632 nm” value [2, 12] was 1.0608. The “Absorbance of azure A at 632 nm” value [2, 13] was 0.8399, the “Absorbance of azure A at 632 nm” value [2, 14] was 0.5797 and the “Absorbance of azure A at 632 nm” value [2, 15] was 0.358. The “Absorbance of azure A at 632 nm” value [2, 16] was 0.205.
